Source: patent US20240366598A1, “GLUCOSE-DEPENDENT INSULINOTROPIC POLYPEPTIDE RECEPTOR ANTAGONISTS AND USES THEREOF” (Pfizer Inc., priority 2023, published 2024)
Counter-ions that a name gives are not always drawn.

Each compound was assayed against T1, human Glucose-dependent Insulinotropic Polypeptide Receptor (hGIPR) (Homo sapiens, UniProt P48546) (assay: Functional in vitro GIPR antagonist potency assay (cAMP HTRF, CHO-K1 cells stably expressing hGIPR, hGIP stimulation at about EC80)). Conditions: geometric mean, hGIP at estimated EC80, examples marked ^2: overall geometric mean of multiple forms (including salts) tested.
T1 sequence (P48546 22-466): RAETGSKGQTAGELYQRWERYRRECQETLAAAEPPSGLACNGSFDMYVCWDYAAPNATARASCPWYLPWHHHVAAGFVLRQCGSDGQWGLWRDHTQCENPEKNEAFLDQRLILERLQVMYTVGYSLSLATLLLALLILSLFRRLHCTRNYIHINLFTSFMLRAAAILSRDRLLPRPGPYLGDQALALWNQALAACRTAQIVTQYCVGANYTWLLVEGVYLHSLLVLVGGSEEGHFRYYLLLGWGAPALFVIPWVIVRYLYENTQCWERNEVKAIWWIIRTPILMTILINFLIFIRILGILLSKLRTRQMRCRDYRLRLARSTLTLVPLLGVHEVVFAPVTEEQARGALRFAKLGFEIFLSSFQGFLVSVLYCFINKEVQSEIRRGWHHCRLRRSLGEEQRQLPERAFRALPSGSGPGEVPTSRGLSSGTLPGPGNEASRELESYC
Type: cell-based
Description: Example AA. Functional In Vitro GIPR Antagonist Potency Assay
The functional in vitro antagonist potency for test compounds was determined by monitoring intracellular cyclic adenosine monophosphate (cAMP) levels in Chinese hamster ovary (CHO)—K1 cells stably expressing the human Glucose-dependent Insulinotropic Polypeptide Receptor (hGIPR). Following agonist activation, hGIPR associates with the G-protein complex causing the Gαs subunit to exchange bound guanosine diphosphate (GDP) for guanosine triphosphate (GTP), followed by dissociation of the Gαs-GTP complex. The activated Gas subunit can couple to downstream effectors to regulate the levels of second messengers or cAMP within the cell. Thereby, determination of intracellular cAMP levels allows for pharmacological characterization. Intracellular cAMP levels are quantitated using a homogenous assay utilizing the Homogeneous Time Resolved Fluorescence (HTRF) technology from Perkin Elmer. […] The two entities compete for binding to a monoclonal anti-cAMP antibody labeled with cryptate. The specific signal is inversely proportional to the concentration of cAMP in the cells.
Test compounds were solubilized to a concentration of 30 mM in 100% dimethyl sulfoxide (DMSO). An 11-point dilution series using 1 in 3.162-fold serial dilutions was created in 100% DMSO with a top concentration of 8 mM. The serially diluted compound was spotted with an Echo Acoustic liquid handler (Beckman Coulter) into a 384-well assay plate (Corning, Cat No. 3824) at 50 nL/well with duplicate points at each concentration, at a 200× final assay concentration (FAC). The final compound concentration range in the assay was 40 μM to […], with a final DMSO concentration of 0.5%.
Frozen assay-ready vials (at 1×10^7 cells/vial) of CHO-K1 cells stably expressing the Gs-coupled human GIPR receptor (Eurofins, DiscoverX, Cat No. 95-0146C2) were thawed, counted, and resuspended in assay buffer consisting of Hank's Balanced Salt Solution (HBSS, Lonza Cat No. 10-527) containing 20 mM (4-(2-hydroxyethyl)-1-piperazineethanesulfonic acid (HEPES, Lonza, Cat No. 17-737E), 0.1% bovine serum albumin (BSA, Sigma, Cat No. A7979), and 200 μM 3-isobutyl-1-methylxanthine (IBMX, Sigma, Cat No. 15879) at a density of 4×10^5 cells/mL. Cells were added to assay plate (5 μL/well of 4×10^5 cells/mL stock for 2,000 cells/well final) containing 50 nL of 200× FAC test compound, and incubated at 37° C. (95% O2: 5% CO2) for 2 hours, with micro-clime lids (Labcyte, Cat No. LLS-0310). Following the 2-hour cell and compound incubation, a stimulation mix comprised of hGIPR agonist human glucose-dependent insulinotropic polypeptide (hGIP, full length, Sigma Cat No. G2269) in assay buffer/0.1% DMSO was added to the assay plate (5 μL/well) at an estimated EC80 FAC (based on previous hGIP agonist curves) and incubated for another 30 minutes with micro-clime lids at 37° C. (95% O2: 5% CO2), after which intracellular cAMP levels were quantified as per Perkin Elmer's protocol (5 μL of d2 and then 5 μL cryptate, incubated for 1 hour at room temperature). Emission spectra of samples were measured on a Pherastar plate reader (BMG Labtech Inc) using a HTRF protocol (excitation, 320 nm; emission, 665 nm/620 nm).
(95% O2: 5% CO2), with a micro-clime lid. Following the 2-hour cell and DMSO incubation, a hGIP concentration response curve at 2× FAC (12-point curve using 1 in 3 serial dilutions, with triplicate points at each concentration, 100 nM final top concentration) in assay buffer/1% DMSO was added (5 μL/well) and incubated for a further 30 minutes with a micro-clime lid at 37° C. (95% O2: 5% CO2), after which intracellular cAMP levels were quantified and samples measured as described previously. Experiments passed quality control if the agonist concentration used for stimulation fell between the on-the-day EC50-EC90. […]
Compound CC(C)c1ccc(NC(=O)N2CCC[C@@H]2C(=O)Nc2ccc3cc(C(=O)O)ccc3c2)cc1 (racemic) [Example 41, 6-[(1-{[4-(propan-2-yl)phenyl]carbamoyl}prolyl)amino]naphthalene-2-carboxylic acid] has an IC50 of 0.16 µM.
CC(C)c1ccc(NC(=O)N2CCC[C@@H]2C(=O)Nc2ccc(-c3ccc(C(=O)O)cc3)cc2)cc1 (racemic) [Example 44, 4′-[(1-{[4-(propan-2-yl)phenyl]carbamoyl}prolyl)amino][1,1′-biphenyl]-4-carboxylic acid] was tested, and the IC50 was 0.0068 µM.
With CC(C)c1ccc(NC(=O)N2CC[C@H](C)[C@@H]2C(=O)Nc2ccc(-c3ccc(C(=O)O)cc3)cc2)cc1 (single isomer, unassigned) [Example 34, 4′-{[(3S)-3-Methyl-1-{[4-(propan-2-yl)phenyl]carbamoyl}-D-prolyl]amino}[1,1′-biphenyl]-4-carboxylic acid or 4′-{[(3R)-3-Methyl-1-{[4-(propan-2-yl)phenyl]carbamoyl}-L-prolyl]amino}[1,1′-biphenyl]-4-carboxylic acid] the IC50 was 0.01 µM.
CC(C)c1ccc(NC(=O)N2CC[C@@H](C)[C@@H]2C(=O)Nc2ccc(-c3ccc(C(=O)O)cc3)cc2)cc1 (single isomer, unassigned) [Example 35, 4′-{[(3R)-3-Methyl-1-{[4-(propan-2-yl)phenyl]carbamoyl}-D-prolyl]amino}[1,1′-biphenyl]-4-carboxylic acid or 4′-{[(3S)-3-Methyl-1-{[4-(propan-2-yl)phenyl]carbamoyl}-L-prolyl]amino}[1,1′-biphenyl]-4-carboxylic acid] was tested, and the IC50 was 0.0046 µM.
In the case of CC[C@H]1CCN(C(=O)Nc2ccc(C(C)C)cc2)[C@H]1C(=O)Nc1ccc(-c2ccc(C(=O)O)cc2)cc1 (single isomer, unassigned) [Example 165, 4′-{[(3R)-3-ethyl-1-{[4-(propan-2-yl)phenyl]carbamoyl}-L-prolyl]amino}[1,1′-biphenyl]-4-carboxylic acid or 4′-{[(3S)-3-ethyl-1-{[4-(propan-2-yl)phenyl]carbamoyl}-D-prolyl]amino}[1,1′-biphenyl]-4-carboxylic acid], the IC50 is reported as 0.0046 µM.
CC[C@@H]1CCN(C(=O)Nc2ccc(C(C)C)cc2)[C@H]1C(=O)Nc1ccc(-c2ccc(C(=O)O)cc2)cc1 (single isomer, unassigned) [Example 166, 4′-{[(3R)-3-ethyl-1-{[4-(propan-2-yl)phenyl]carbamoyl}-D-prolyl]amino}[1,1′-biphenyl]-4-carboxylic acid or 4′-{[(3S)-3-ethyl-1-{[4-(propan-2-yl)phenyl]carbamoyl}-L-prolyl]amino}[1,1′-biphenyl]-4-carboxylic acid] showed an IC50 of 0.0057 µM.
Work on O=C(O)[C@@H]1CCc2nc(NC(=O)[C@H]3CCCN3C(=O)Nc3ccc(C(F)(F)F)cc3)ccc2C1 (single isomer, unassigned) [Example 217, 2-[(1-{[4-(trifluoromethyl)phenyl]carbamoyl}-D-prolyl)amino]-5,6,7,8-tetrahydroquinoline-6-carboxylic acid, DIAST-1] yielded an IC50 of 0.14 µM.
O=C(O)[C@@H]1CCc2nc(NC(=O)[C@H]3CCCN3C(=O)Nc3ccc(C(F)(F)F)cc3)ccc2C1 (single isomer, unassigned) [Example 218, 2-[(1-{[4-(trifluoromethyl)phenyl]carbamoyl}-D-prolyl)amino]-5,6,7,8-tetrahydroquinoline-6-carboxylic acid, DIAST-2] showed an IC50 of 0.033 µM.
O=C(O)[C@@H]1CCc2nc(NC(=O)[C@H]3CCCN3C(=O)Nc3ccc(C(F)(F)F)c(F)c3)ccc2C1 (single isomer, unassigned) [Example 220, 2-[(1-{[3-fluoro-4-(trifluoromethyl)phenyl]carbamoyl}-D-prolyl)amino]-5,6,7,8-tetrahydroquinoline-6-carboxylic acid, DIAST-1] was tested, and the IC50 was 0.047 µM.
For O=C(O)[C@@H]1CCc2nc(NC(=O)[C@H]3CCCN3C(=O)Nc3ccc(C(F)(F)F)c(F)c3)ccc2C1 (single isomer, unassigned) [Example 221, 2-[(1-{[3-fluoro-4-(trifluoromethyl)phenyl]carbamoyl}-D-prolyl)amino]-5,6,7,8-tetrahydroquinoline-6-carboxylic acid, DIAST-2], the IC50 was 0.011 µM.
Cc1cc(NC(=O)N2CCC[C@@H]2C(=O)Nc2ccc3c(n2)CC[C@@H](C(=O)O)C3)ccc1C(F)(F)F (single isomer, unassigned) [Example 226, 2-[(1-{[3-methyl-4-(trifluoromethyl)phenyl]carbamoyl}-D-prolyl)amino]-5,6,7,8-tetrahydroquinoline-6-carboxylic acid, DIAST-1] showed an IC50 of 0.081 µM.
With Cc1cc(NC(=O)N2CCC[C@@H]2C(=O)Nc2ccc3c(n2)CC[C@@H](C(=O)O)C3)ccc1C(F)(F)F (single isomer, unassigned) [Example 227, 2-[(1-{[3-methyl-4-(trifluoromethyl)phenyl]carbamoyl}-D-prolyl)amino]-5,6,7,8-tetrahydroquinoline-6-carboxylic acid, DIAST-2] the IC50 was 0.053 µM.
CC(C)c1ccc(NC(=O)N2CCC[C@@H]2C(=O)Nc2ccc3c(n2)CC[C@@H](C(=O)O)C3)cc1F (single isomer, unassigned) [Example 228, 2-[(1-{[3-fluoro-4-(propan-2-yl)phenyl]carbamoyl}-D-prolyl)amino]-5,6,7,8-tetrahydroquinoline-6-carboxylic acid, trifluoroacetate salt, DIAST-1] was tested, and the IC50 was 0.036 µM.
In the case of CC(C)c1ccc(NC(=O)N2CCC[C@@H]2C(=O)Nc2ccc3c(n2)CC[C@@H](C(=O)O)C3)cc1F (single isomer, unassigned) [Example 229, 2-[(1-{[3-fluoro-4-(propan-2-yl)phenyl]carbamoyl}-D-prolyl)amino]-5,6,7,8-tetrahydroquinoline-6-carboxylic acid, trifluoroacetate salt, DIAST-2], the IC50 is reported as 0.011 µM.
CC(C)c1ccc(NC(=O)N2CCC[C@@H]2C(=O)Nc2ccc(-c3ccc(C(=O)O)nc3)cc2)cc1 [Example 1, Ammonium 5-{4-[(1-{[4-(propan-2-yl)phenyl]carbamoyl}-D-prolyl)amino]phenyl}pyridine-2-carboxylate] gave an IC50 of 0.016 µM.
Work on CC(C)c1ccc(NC(=O)N2CCC[C@@H]2C(=O)Nc2ccc(-c3ccc(C(=O)O)cn3)cc2)cc1 [Example 2, 6-{4-[(1-{[4-(Propan-2-yl)phenyl]carbamoyl}-D-prolyl)amino]phenyl}pyridine-3-carboxylic acid] yielded an IC50 of 0.074 µM.
In the case of CC(C)c1ccc(NC(=O)N2CCC[C@@H]2C(=O)Nc2ccc(-c3cccc(C(=O)O)c3)cc2)cc1 [Example 3, 4′-[(1-{[4-(Propan-2-yl)phenyl]carbamoyl}-D-prolyl)amino][1,1′-biphenyl]-3-carboxylic acid], the IC50 is reported as 0.017 µM.
Compound CC(C)c1ccc(NC(=O)N2CCC[C@@H]2C(=O)Nc2ccc(-c3ccc(C(=O)O)cc3)cc2)cc1 [Example 4, 4′-[(1-{[4-(Propan-2-yl)phenyl]carbamoyl}-D-prolyl)amino][1,1′-biphenyl]-4-carboxylic acid] has an IC50 of 0.0041 µM.
